# *1 amine or outer side, *2 acyl side, *3 side chain or, on linkers, in order; H or OH if unused. Where a SMILES comes first, the peptide text is derived from it. [ ]: non-standard residue; d: D form. Trp(βS-Me,4-F) = C[C@@H](c1c[nH]c2cccc(F)c12)[C@H](N)C(=O)O; Bip(4'-COOH) = N[C@@H](Cc1ccc(-c2ccc(C(=O)O)cc2)cc1)C(=O)O; Phe(3-CH2NH2) = O=C([C@H](Cc1cccc(CN[*:3])c1)N[*:1])[*:2]; Phe(4-COOH) = N[C@@H](Cc1ccc(C(=O)O)cc1)C(=O)O; h3Pal(5-CN) = N#Cc1cncc(CC[C@H](N)C(=O)O)c1; Pro(4R-NH2) = N[C@H]1CN[C@H](C(=O)O)C1; Ala(4-THP) = N[C@@H](CC1CCOCC1)C(=O)O; hTyr = N[C@@H](CCc1ccc(O)cc1)C(=O)O; Aad = N[C@@H](CCCC(=O)O)C(=O)O; hLys = NCCCCC[C@H](N)C(=O)O; dDab = NCC[C@@H](N)C(=O)O; dNMeA = CN[C@H](C)C(=O)O; Nva = CCC[C@H](N)C(=O)O
# Target: T1, Recombinant human IL-1β (Homo sapiens, UniProt P01584)
# T1 construct: purchased BioLegend 579404
# T1 sequence (P01584 117-269): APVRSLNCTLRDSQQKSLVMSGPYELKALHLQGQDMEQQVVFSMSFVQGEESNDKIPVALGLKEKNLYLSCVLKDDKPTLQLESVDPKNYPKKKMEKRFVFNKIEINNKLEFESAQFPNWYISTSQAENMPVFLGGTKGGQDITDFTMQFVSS
# Test: IL-6 assay in MRC5 cells: inhibition of IL-1β induced IL-6 secretion (AlphaLISA)
# Format: cell-based
# Conditions: inhibition of IL-1β induced IL-6 secretion in MRC5 cells; IL-1β pre-incubated 1 hour with compound; read-out: MRC5 IC50
# Outline: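 IL-1β at 2×EC80 in seeding medium (EMEM, 0.025% BSA) preincubated 1 h at ambient temperature with compound, then 3000 MRC5 cells/well added and incubated overnight at 37 °C, 5% CO2. IL-6 in conditioned medium quantified by AlphaLISA; IC50 from 4-parameter logistic fit.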
row,SMILES,IC50 [nM]
1,"CC(C)C[C@@H]1NC(=O)[C@H](CCCCCN)NC(=O)[C@H](Cc2ccc(-c3ccc(C(=O)O)cc3)cc2)NC(=O)CNC(=O)[C@@H](C)N(C)C(=O)[C@H](CC(=O)O)NC(=O)[C@H]([C@@H](C)c2c[nH]c3cccc(F)c23)NC(=O)[C@@H]2C[C@@H](N)CN2C(=O)CNC(=O)[C@H](Cc2ccc(C(=O)O)cc2)NC(=O)[C@H](Cc2c[nH]c3ccccc23)NC(=O)[C@H](Cc2ccc(-c3ccc(C(=O)O)cc3)cc2)NC(=O)[C@H](CCc2ccc(O)cc2)NC(=O)[C@@H](C)NC1=O [Example 62] (cyclo([Bip(4'-COOH)]W[Phe(4-COOH)]G[Pro(4R-NH2)][Trp(βS-Me,4-F)]D[dNMeA]G[Bip(4'-COOH)][hLys]L[dA][hTyr]))",0.283
2,"CC(C)C[C@@H]1NC(=O)[C@H](CCCC(N)=O)NC(=O)[C@H](Cc2ccc(-c3ccc(C(=O)O)cc3)cc2)NC(=O)CNC(=O)[C@@H](C)N(C)C(=O)[C@H](CC(=O)O)NC(=O)[C@H]([C@@H](C)c2c[nH]c3cccc(F)c23)NC(=O)[C@@H]2C[C@@H](N)CN2C(=O)CNC(=O)[C@H](Cc2ccc(C(=O)O)cc2)NC(=O)[C@H](Cc2c[nH]c3ccccc23)NC(=O)[C@H](Cc2ccc(-c3ccc(C(=O)O)cc3)cc2)NC(=O)[C@H](CCc2ccc(O)cc2)NC(=O)[C@@H](C)NC1=O [Example 63] (cyclo([Bip(4'-COOH)]W[Phe(4-COOH)]G[Pro(4R-NH2)][Trp(βS-Me,4-F)]D[dNMeA]G[Bip(4'-COOH)][Aad](NH2)L[dA][hTyr]))",0.0629
3,"C[C@@H]1C(=O)NCC(=O)N[C@@H](Cc2ccc(-c3ccc(C(=O)O)cc3)cc2)C(=O)N[C@@H](CCCCN)C(=O)N[C@@H](CC2CCOCC2)C(=O)N[C@H](C)C(=O)N[C@@H](CCc2cncc(C#N)c2)C(=O)N[C@@H](Cc2ccc(-c3ccc(C(=O)O)cc3)cc2)C(=O)N[C@@H](Cc2c[nH]c3ccccc23)C(=O)N[C@@H](Cc2ccc(C(=O)O)cc2)C(=O)NCC(=O)N2C[C@H](N)C[C@H]2C(=O)N[C@@H]([C@@H](C)c2c[nH]c3cccc(F)c23)C(=O)N[C@@H](CC(=O)O)C(=O)N1C [Example 64] (cyclo([Bip(4'-COOH)]W[Phe(4-COOH)]G[Pro(4R-NH2)][Trp(βS-Me,4-F)]D[dNMeA]G[Bip(4'-COOH)]K[Ala(4-THP)][dA][h3Pal(5-CN)]))",0.0182
4,"C[C@@H]1C(=O)NCC(=O)N[C@@H](Cc2ccc(-c3ccc(C(=O)O)cc3)cc2)C(=O)N[C@@H](CCCCN)C(=O)N[C@@H](CC2CCOCC2)C(=O)N[C@H](C)C(=O)N[C@@H](CCc2ccc(O)cc2)C(=O)N[C@@H](Cc2ccc(-c3ccc(C(=O)O)cc3)cc2)C(=O)N[C@@H](Cc2c[nH]c3ccccc23)C(=O)N[C@@H](Cc2ccc(C(=O)O)cc2)C(=O)NCC(=O)N2C[C@H](N)C[C@H]2C(=O)N[C@@H]([C@@H](C)c2c[nH]c3cccc(F)c23)C(=O)N[C@@H](CC(=O)O)C(=O)N1C [Example 65] (cyclo([Bip(4'-COOH)]W[Phe(4-COOH)]G[Pro(4R-NH2)][Trp(βS-Me,4-F)]D[dNMeA]G[Bip(4'-COOH)]K[Ala(4-THP)][dA][hTyr]))",0.0158
5,"CC(C)C[C@@H]1NC(=O)[C@H](CCCCN)NC(=O)[C@H](Cc2ccc(-c3ccc(C(=O)O)cc3)cc2)NC(=O)CNC(=O)[C@@H](C)N(C)C(=O)[C@H](CC(=O)O)NC(=O)[C@H]([C@@H](C)c2c[nH]c3cccc(F)c23)NC(=O)[C@@H]2C[C@@H](N)CN2C(=O)CNC(=O)[C@H](Cc2ccc(C(=O)O)cc2)NC(=O)[C@H](Cc2c[nH]c3ccccc23)NC(=O)[C@H](Cc2ccc(-c3ccc(C(=O)O)cc3)cc2)NC(=O)[C@H](CCc2cncc(C#N)c2)NC(=O)[C@@H](C)NC1=O [Example 66] (cyclo([Bip(4'-COOH)]W[Phe(4-COOH)]G[Pro(4R-NH2)][Trp(βS-Me,4-F)]D[dNMeA]G[Bip(4'-COOH)]KL[dA][h3Pal(5-CN)]))",0.0299
6,"CC(C)C[C@@H]1NC(=O)[C@H](CCCCN)NC(=O)[C@H](Cc2ccc(-c3ccc(C(=O)O)cc3)cc2)NC(=O)CNC(=O)[C@@H](C)N(C)C(=O)[C@H](CC(=O)O)NC(=O)[C@H]([C@@H](C)c2c[nH]c3cccc(F)c23)NC(=O)[C@@H]2C[C@@H](N)CN2C(=O)CNC(=O)[C@H](Cc2ccc(C(=O)O)cc2)NC(=O)[C@H](Cc2c[nH]c3ccccc23)NC(=O)[C@H](Cc2ccc(-c3ccc(C(=O)O)cc3)cc2)NC(=O)[C@H](CCc2ccc(O)cc2)NC(=O)[C@@H](C)NC1=O [Example 67] (cyclo([Bip(4'-COOH)]W[Phe(4-COOH)]G[Pro(4R-NH2)][Trp(βS-Me,4-F)]D[dNMeA]G[Bip(4'-COOH)]KL[dA][hTyr]))",0.046
7,"CC(C)C[C@@H]1NC(=O)[C@H](CCCCN)NC(=O)[C@H](Cc2ccc(-c3ccc(C(=O)O)cc3)cc2)NC(=O)CNC(=O)[C@@H](C)N(C)C(=O)[C@H](CC(=O)O)NC(=O)[C@H]([C@@H](C)c2c[nH]c3cccc(F)c23)NC(=O)[C@@H]2C[C@@H](N)CN2C(=O)CNC(=O)[C@H](Cc2ccc(C(=O)O)cc2)NC(=O)[C@H](Cc2c[nH]c3ccccc23)NC(=O)[C@H](Cc2ccc(-c3ccc(C(=O)O)cc3)cc2)NC(=O)[C@H](CCc2ccc(O)cc2)NC(=O)[C@@H](CCN)NC1=O [Example 68] (cyclo([Bip(4'-COOH)]W[Phe(4-COOH)]G[Pro(4R-NH2)][Trp(βS-Me,4-F)]D[dNMeA]G[Bip(4'-COOH)]KL[dDab][hTyr]))",0.296
8,"CC(C)C[C@@H]1NC(=O)[C@H](CCCCN)NC(=O)[C@H](Cc2ccc(-c3ccc(C(=O)O)cc3)cc2)NC(=O)CNC(=O)[C@@H](C)N(C)C(=O)[C@H](CC(=O)O)NC(=O)[C@H]([C@@H](C)c2c[nH]c3cccc(F)c23)NC(=O)[C@@H]2C[C@@H](N)CN2C(=O)CNC(=O)[C@H](Cc2ccc(C(=O)O)cc2)NC(=O)[C@H](Cc2c[nH]c3ccccc23)NC(=O)[C@H](Cc2ccc(-c3ccc(C(=O)O)cc3)cc2)NC(=O)[C@H](CCc2ccc(O)cc2)NC(=O)[C@@H](CO)NC1=O [Example 69] (cyclo([Bip(4'-COOH)]W[Phe(4-COOH)]G[Pro(4R-NH2)][Trp(βS-Me,4-F)]D[dNMeA]G[Bip(4'-COOH)]KL[dS][hTyr]))",0.334
9,"CC(C)C[C@@H]1NC(=O)[C@H](CCCCN)NC(=O)[C@H](Cc2ccc(-c3ccc(C(=O)O)cc3)cc2)NC(=O)CNC(=O)[C@@H](C)N(C)C(=O)[C@H](CC(=O)O)NC(=O)[C@H]([C@@H](C)c2c[nH]c3cccc(F)c23)NC(=O)[C@@H]2C[C@@H](N)CN2C(=O)CNC(=O)[C@H](Cc2ccc(C(=O)O)cc2)NC(=O)[C@H](Cc2c[nH]c3ccccc23)NC(=O)[C@H](Cc2ccc(-c3ccc(C(=O)O)cc3)cc2)NC(=O)[C@H](CCc2ccc(O)cc2)NC(=O)CNC1=O [Example 70] (cyclo([Bip(4'-COOH)]W[Phe(4-COOH)]G[Pro(4R-NH2)][Trp(βS-Me,4-F)]D[dNMeA]G[Bip(4'-COOH)]KLG[hTyr]))",0.0973
10,"CCC[C@@H]1NC(=O)[C@H](CCCCN)NC(=O)[C@H](Cc2ccc(-c3ccc(C(=O)O)cc3)cc2)NC(=O)CNC(=O)[C@@H](C)N(C)C(=O)[C@H](CC(=O)O)NC(=O)[C@H]([C@@H](C)c2c[nH]c3cccc(F)c23)NC(=O)[C@@H]2C[C@@H](N)CN2C(=O)CNC(=O)[C@H](Cc2ccc(C(=O)O)cc2)NC(=O)[C@H](Cc2c[nH]c3ccccc23)NC(=O)[C@H](Cc2ccc(-c3ccc(C(=O)O)cc3)cc2)NC(=O)[C@H](CCc2ccc(O)cc2)NC(=O)[C@@H](C)NC1=O [Example 71] (cyclo([Bip(4'-COOH)]W[Phe(4-COOH)]G[Pro(4R-NH2)][Trp(βS-Me,4-F)]D[dNMeA]G[Bip(4'-COOH)]K[Nva][dA][hTyr]))",0.0926
11,"C[C@@H]1C(=O)NCC(=O)N[C@@H](Cc2ccc(-c3ccc(C(=O)O)cc3)cc2)C(=O)N[C@@H](CCCCN)C(=O)N[C@@H](CO)C(=O)N[C@H](C)C(=O)N[C@@H](CCc2ccc(O)cc2)C(=O)N[C@@H](Cc2ccc(-c3ccc(C(=O)O)cc3)cc2)C(=O)N[C@@H](Cc2c[nH]c3ccccc23)C(=O)N[C@@H](Cc2ccc(C(=O)O)cc2)C(=O)NCC(=O)N2C[C@H](N)C[C@H]2C(=O)N[C@@H]([C@@H](C)c2c[nH]c3cccc(F)c23)C(=O)N[C@@H](CC(=O)O)C(=O)N1C [Example 72] (cyclo([Bip(4'-COOH)]W[Phe(4-COOH)]G[Pro(4R-NH2)][Trp(βS-Me,4-F)]D[dNMeA]G[Bip(4'-COOH)]KS[dA][hTyr]))",0.107
12,"CC(C)C[C@@H]1NC(=O)[C@H](Cc2cccc(CN)c2)NC(=O)[C@H](Cc2ccc(-c3ccc(C(=O)O)cc3)cc2)NC(=O)CNC(=O)[C@@H](C)N(C)C(=O)[C@H](CC(=O)O)NC(=O)[C@H]([C@@H](C)c2c[nH]c3cccc(F)c23)NC(=O)[C@@H]2C[C@@H](N)CN2C(=O)CNC(=O)[C@H](Cc2ccc(C(=O)O)cc2)NC(=O)[C@H](Cc2c[nH]c3ccccc23)NC(=O)[C@H](Cc2ccc(-c3ccc(C(=O)O)cc3)cc2)NC(=O)[C@H](CCc2ccc(O)cc2)NC(=O)[C@@H](C)NC1=O [Example 73] (cyclo([Bip(4'-COOH)]W[Phe(4-COOH)]G[Pro(4R-NH2)][Trp(βS-Me,4-F)]D[dNMeA]G[Bip(4'-COOH)][Phe(3-CH2NH2)]L[dA][hTyr]))",0.0509
13,"C[C@@H]1C(=O)NCC(=O)N[C@@H](Cc2ccc(-c3ccc(C(=O)O)cc3)cc2)C(=O)N[C@@H](Cc2cccc(CN)c2)C(=O)N[C@@H](CO)C(=O)N[C@H](C)C(=O)N[C@@H](CCc2ccc(O)cc2)C(=O)N[C@@H](Cc2ccc(-c3ccc(C(=O)O)cc3)cc2)C(=O)N[C@@H](Cc2c[nH]c3ccccc23)C(=O)N[C@@H](Cc2ccc(C(=O)O)cc2)C(=O)NCC(=O)N2C[C@H](N)C[C@H]2C(=O)N[C@@H]([C@@H](C)c2c[nH]c3cccc(F)c23)C(=O)N[C@@H](CC(=O)O)C(=O)N1C [Example 74] (cyclo([Bip(4'-COOH)]W[Phe(4-COOH)]G[Pro(4R-NH2)][Trp(βS-Me,4-F)]D[dNMeA]G[Bip(4'-COOH)][Phe(3-CH2NH2)]S[dA][hTyr]))",0.296

# Reference: patent US20230406885A1, “CYCLIC PEPTIDES FOR TRAPPING INTERLEUKIN-1 BETA” (MERCK SHARP & DOHME LLC, priority 2022, published 2023)
